As a reminder, the melting point is the temperature of the solid-liquid transition.

For this series the following is noted: a range is the spread between reports.

On to `CC(C)Cl`, for which the melting point was -118 to -117 °C.

With `OCCCCCO`, the melting point is -18 to -16 °C.

In the case of `CCCC(C)(C)CC`, the melting point was -126 °C.

As for `CCCC(O)CCC`, the melting point is -42 to -41.2 °C.

For the compound `COC(=O)CCl`, the melting point is -32.1 to -32 °C.

In the case of `Cc1ccccc1Br`, the melting point was -28 to -27 °C.

The compound `CCNC(=O)C(=O)NCC` returned a melting point of 175 to 180 °C.

The compound `CC(=O)c1ccc(I)cc1` displayed a melting point of 83 to 86 °C.

For the compound `CCCCCCCC1CCCCC1`, the melting point was -31 to -30 °C.

As for `C1CCOC1`, the melting point is -108 °C.

As for `Cc1c(Br)cc(Br)c(O)c1Br`, the melting point lay within 82 to 84 °C.

Turning to `CCOC(C)=O`, the melting point was -84 to -83.6 °C.

For the compound `CN(C)c1ccc(Br)cc1`, the melting point is 54 to 55 °C.

`O=C(C(F)(F)F)C(F)(F)F`: the melting point was -129 to -125 °C.

As for `Cc1cc(Cl)ccc1OC(C)C(=O)O` (stereo not drawn), the melting point lay within 94 to 95 °C.

As for `CCNC(=O)NCC`, the melting point was in the range of 110 to 112 °C.

In turn, `CN(C)c1ccc(N(C)C)cc1` gave a melting point of 50 to 51 °C.

`CC12CCC(=O)C=C1CCC1C2C(=O)CC2(C)C1CCC2(O)C(=O)CO` (stereo not drawn) showed a melting point of 222 to 226 °C.

In the case of `CCCCc1ccccc1`, the melting point was -88 to -87.9 °C.

The compound `O=[N+]([O-])c1ccccc1CO` came in with a melting point of 72 to 74 °C.

Take `CCCCCCCC(=O)O`: the melting point was in the range of 15.8 to 17 °C.

Consider `S=C=S`, for which the melting point is -112 °C.

On to `CCOC(=O)CC#N`, for which the melting point was -23 to -22 °C.

Regarding `N#C/C=C/C#N`, the melting point was 96.8 to 97 °C.

Take `Clc1ccccc1Cl`: the melting point was -18 to -16.7 °C.

In the case of `CCOc1cccc(OCC)c1`, the melting point lay in the range of 11 to 12.4 °C.

`C[Si](C)(C)[Si](C)(C)C`: the melting point lay in the range of 12 to 13.5 °C.

As for `N#CC(Cl)(Cl)Cl`, the melting point was -44 to -42 °C.

`Brc1ccc(Br)cc1` had a melting point of 87 to 88 °C.

As for `OC1C2CCC(C2)C1O` (stereo not drawn), the melting point was 139 to 141 °C.

`ClC1=C(Cl)C2(Cl)C3C(Cl)C=CC3C1(Cl)C2(Cl)Cl` (stereo not drawn) returned a melting point of 95 to 95.5 °C.

The compound `N#Cc1cc(Cl)cc(Cl)c1` had a melting point of 64 to 66 °C.

Take `Cc1ccccc1C`: the melting point is -25.2 to -25 °C.

Take `Cc1cc(C)c(C)c(C)c1`: the melting point was -24 to -23.7 °C.

The compound `CCCCCCCCCCCCCCCCCCCCCCCCC` registered a melting point of 53 to 54 °C.

As to `CC/C=C/CC`, the melting point is -115 to -113 °C.

Consider `Fc1ccccc1I`, for which the melting point was -42 to -41.5 °C.

`COC(=O)C1C(OC(=O)c2ccccc2)CC2CCC1N2C` (stereo not drawn) registered a melting point of 93.5 to 98 °C.

Turning to `CC(=O)Cl`, the melting point was -113 to -112 °C.

Compound `COc1ccccc1O` gave a melting point of 28 to 32 °C.

As for `NC(=O)c1cccc(N)c1`, the melting point lay in the range of 113 to 116 °C.

The compound `OC/C=C\CO` came in with a melting point of 4 to 7 °C.

`O=C(O)C(O)c1ccc(Br)cc1` (stereo not drawn) yielded a melting point of 117 to 118 °C.

On to `Clc1ccc(C(c2ccc(Cl)cc2)C(Cl)Cl)cc1`, for which the melting point was 109 to 110 °C.

Consider `O=C1OC(=O)c2cc(Cl)c(Cl)cc21`, for which the melting point was in the range of 186 to 188 °C.

`CCCCCCCCC`: the melting point is -54 to -53 °C.

Turning to `CC(C)(C)c1ccccc1`, the melting point was -59.5 to -57.8 °C.

As for `C=C(C)CCC(=C)C`, the melting point is -75.6 to -75 °C.

As to `N#CCC(=O)O`, the melting point fell in the range of 66 to 67 °C.

On to `O=C1CCCCCN1`, for which the melting point lay in the range of 69 to 70 °C.

`OC1CCCCC1O` (stereo not drawn) came in with a melting point of 100 to 102 °C.

In turn, `Nc1ccncn1` displayed a melting point of 150 to 155 °C.

Consider `CCCCOC(=O)c1ccc(O)cc1`, for which the melting point fell in the range of 68.5 to 72 °C.

`c1ccc(P(CP(c2ccccc2)c2ccccc2)c2ccccc2)cc1`: the melting point is 119 to 121 °C.

The compound `NC(=O)c1ccc(O)cc1` returned a melting point of 161 to 162 °C.

`Nc1ccc(S(=O)(=O)Nc2ccccn2)cc1` showed a melting point of 190 to 192 °C.

The compound `CCC(=O)c1ccc(Br)cc1` came in with a melting point of 46 to 48 °C.

As to `BrCC(Br)c1ccccc1` (stereo not drawn), the melting point was 72 to 75 °C.

For `C=CC=O`, the melting point was -87.7 to -87 °C.

`c1ccc2c(c1)ccc1cc3c(ccc4ccccc43)cc12`: the melting point is 266 to 270 °C.

`CCCCCCCCCCc1ccc(N)cc1` returned a melting point of 24 to 25 °C.

`CCCCCCCCC(=O)CCCCCCCC` displayed a melting point of 52 to 53 °C.

Regarding `c1ccc2cc3c(ccc4ccccc43)cc2c1`, the melting point is 158 to 160 °C.

Compound `CCCCNC(=O)NS(=O)(=O)c1ccc(C)cc1` registered a melting point of 128 to 129 °C.

As to `N#Cc1ccccc1`, the melting point was -13 to -12.7 °C.

As for `CCCCCCCCCCCCCCCCCCCCCC`, the melting point was 42 to 45 °C.

For the compound `Cc1cc(N)ccc1Cl`, the melting point fell in the range of 83.5 to 84 °C.

`CS(=O)(=O)c1ccccc1` returned a melting point of 86 to 87 °C.

With `O=Cc1ccco1`, the melting point was -38.1 to -36 °C.

Regarding `O=C(O)C=Cc1ccccc1C(F)(F)F`, the melting point was 202 to 206 °C.

The compound `Brc1cncc2ccccc12` yielded a melting point of 41 to 41.5 °C.

Take `C=CCc1ccc(O)c(OC)c1`: the melting point was -10 to -9 °C.

For `CCOCCOC(C)=O`, the melting point is -62 to -61 °C.

Compound `Nc1ccc(C(=O)O)cc1` came in with a melting point of 188 to 189 °C.

In turn, `OCc1cccc(CO)c1` came in with a melting point of 57 to 58 °C.

Compound `O=C(c1ccccc1)c1cccs1` yielded a melting point of 56 to 57 °C.

Take `C=CCN`: the melting point is -88.2 to -88 °C.

`Oc1ccc(Cc2ccccc2)cc1` showed a melting point of 83 to 84 °C.

As for `CC(=O)c1ccc(Cl)c(Cl)c1`, the melting point lay in the range of 73 to 76 °C.

`FC(F)(F)c1ccccc1Cl`: the melting point is -7.4 to -6 °C.

On to `CCC(C)OC(C)=O` (stereo not drawn), for which the melting point was -99 to -98.9 °C.

As to `O=C=S`, the melting point was -139 °C.

As for `O=[N+]([O-])c1ccc(Cl)cc1`, the melting point lay within 83.5 to 84 °C.

On to `CCCCCCBr`, for which the melting point is -85 to -84.7 °C.

The compound `CC(=O)N[C@@H](Cc1ccc(O)cc1)C(=O)O` gave a melting point of 149 to 153 °C.

Regarding `C1CCSC1`, the melting point is -96.1 to -96 °C.

`CCC1CCCC1`: the melting point was -138 °C.

For `CCC(C)CC(O)CC` (stereo not drawn), the melting point was -91.2 to -91 °C.

With `CCCC(=O)O`, the melting point is -8 to -5 °C.

Turning to `CCOCOCC`, the melting point was -66.5 to -66 °C.

As to `Cc1ccc(Cc2ccccc2)cc1`, the melting point lay within 4.58 to 5 °C.

The compound `CC12C=CC(=O)C=C1CCC1C2C(=O)CC2(C)C1CCC2(O)C(=O)CO` (stereo not drawn) gave a melting point of 234 to 237 °C.

With `O=[N+]([O-])c1cccc2cccnc12`, the melting point was 88 to 90 °C.

On to `CC(=O)CC(=O)Nc1ccccc1`, for which the melting point lay in the range of 85 to 86 °C.

Consider `COCC(=O)O`, for which the melting point was in the range of 7.7 to 8 °C.

The compound `Cc1ccc(N=C=S)cc1` registered a melting point of 25 to 25.5 °C.

`Nc1cc(C(=O)O)ccc1Cl` came in with a melting point of 214 to 216 °C.

Compound `CNc1ccc([N+](=O)[O-])cc1` registered a melting point of 152 to 153 °C.

On to `O=C(O)c1ccc(CO)cc1`, for which the melting point was 181 to 182 °C.

As for `Cc1cccc([N+](=O)[O-])c1`, the melting point was in the range of 15.5 to 16 °C.

In the case of `Oc1ccc(I)cc1`, the melting point was in the range of 92 to 94 °C.

Turning to `CC12CCC3C(CCC4CC(OCc5ccccc5)CCC43C)C1CCC2=O` (stereo not drawn), the melting point lay in the range of 216 to 220 °C.

For the compound `O=C(Cc1ccccc1)Cc1ccccc1`, the melting point was 32 to 35 °C.

As to `BrC1CCCCC1`, the melting point is -57 to -56.5 °C.

The compound `O=C1C=CC(=O)N1c1ccccc1` had a melting point of 89 to 90.5 °C.

For the compound `CCOc1ccc(C#N)cc1`, the melting point lay within 61.5 to 62 °C.

Consider `CCOC(=O)c1ccccc1N`, for which the melting point fell in the range of 13 to 15 °C.

`N#Cc1ccc(C#N)cc1`: the melting point is 224 to 226 °C.

For the compound `Cc1cc(N)c2ccccc2n1`, the melting point lay in the range of 164 to 169 °C.

Take `CCCSCCC`: the melting point is -103 to -102 °C.

Compound `O=C(c1ccccc1)C1CCCCC1` had a melting point of 55 to 56 °C.

In the case of `O=C(c1ccccc1)c1ccccn1`, the melting point fell in the range of 42 to 43 °C.

In turn, `Clc1ccc2ccccc2n1` gave a melting point of 36 to 38 °C.

`O=C(O)c1ccc([N+](=O)[O-])cc1[N+](=O)[O-]` yielded a melting point of 181 to 182 °C.

Take `CCCCCCCCCCCCCCCCCC(=O)CCCCCCCCCCCCCCCCC`: the melting point lay within 87 to 89 °C.

With `C=C(C)c1ccccc1`, the melting point was -23.2 to -23 °C.

`Oc1cc(Cl)c(Cl)cc1Cl` registered a melting point of 65.5 to 69 °C.

Compound `Cc1cccc(O)c1O` gave a melting point of 65 to 68 °C.

`CSc1ccc(C(=O)O)cc1` gave a melting point of 194 to 195 °C.

On to `ClC(Cl)(Cl)Br`, for which the melting point is -6 to -5.7 °C.

In turn, `O=C(O)Cc1ccccc1Cl` yielded a melting point of 95 to 96 °C.

As for `CCCCP(=O)(CCCC)CCCC`, the melting point is 64 to 67 °C.

Take `COC(=O)c1cc(Cl)ccc1N`: the melting point is 67 to 69 °C.

Compound `COc1cc(Cl)cc(Cl)c1` had a melting point of 40 to 41 °C.

Consider `Clc1cccc(Cl)c1`, for which the melting point is -25 to -24.8 °C.

`C1CCCCCCC1` showed a melting point of 12 to 15 °C.

For `O=S1(=O)CC=CC1`, the melting point lay within 64.5 to 65 °C.

In the case of `COc1ccccc1C=O`, the melting point fell in the range of 37 to 38 °C.

Compound `O=[N+]([O-])c1ccccc1I` registered a melting point of 50 to 54 °C.

The compound `Cc1ccc(O)c(C)c1` returned a melting point of 22 to 27 °C.

`N#Cc1ccccc1-c1ccccc1` had a melting point of 38 to 41 °C.

Regarding `NC(=O)c1ccccc1F`, the melting point lay in the range of 116 to 118 °C.

`O=C(C=Cc1ccccc1)OCc1ccccc1` gave a melting point of 35 to 39 °C.

For the compound `Cc1c2ccccc2cc2ccccc12`, the melting point lay within 78 to 81.5 °C.

In the case of `c1ccc2c(c1)Cc1ccccc1-2`, the melting point is 112 to 116 °C.

`N#CCc1cccc(CC#N)c1` registered a melting point of 33 to 34 °C.

`CC12CCC(=O)C=C1CCC1C2CCC2(C)C(C(=O)CO)CCC12` (stereo not drawn) gave a melting point of 142 °C.

In turn, `CCCCCCCCCCCCCC(N)=O` had a melting point of 104 to 106 °C.

`O=C(O)c1ccccc1Nc1ccccc1` showed a melting point of 184 to 187 °C.

`COc1cccc(C#N)c1OC` displayed a melting point of 44.5 to 46 °C.

For `CC(F)(F)Cl`, the melting point is -131 °C.

In the case of `N#CCc1cccc2ccccc12`, the melting point was 32.5 to 34 °C.

The compound `COc1ccccc1OCC(O)CO` (stereo not drawn) registered a melting point of 78.5 to 81 °C.

For the origin of these results see a melting point compilation (Tetko et al.).
